IC50 data for two molecules are collected here from paper PMC5021751, “Discovery of DNA dyes Hoechst 34580 and 33342 as good candidates for inhibiting amyloid beta formation: in silico and in vitro study” (Journal of Computer-Aided Molecular Design, 2016).

In the assay the target is T1, Aβ42 (amyloid beta) (Homo sapiens, UniProt P05067).
T1 construct: gene APP
The experiment in a line: Thioflavin T fibrillization assay with purified Aβ[…] peptide. It is filed as biochemical.

The structures appear in SMILES notation. Read-outs that look alike come from different tables or passages of the source.

As a reminder, the IC50 is the concentration needed to halve the response being measured.

T1 sequence (P05067 672-713 limits assumed): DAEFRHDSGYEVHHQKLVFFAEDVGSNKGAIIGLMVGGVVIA

In the case of `CCOc1ccc(-c2nc3cc(-c4nc5cc(N6CCN(C)CC6)ccc5[nH]4)ccc3[nH]2)cc1` [Hoechst 33342], the half-inhibitory concentration (IC50) (read-out: IC50) amounted to 680 ± 50 nM.
`CN1CCN(c2ccc3[nH]c(-c4ccc5[nH]c(-c6ccc(N(C)C)cc6)nc5c4)nc3c2)CC1` [Hoechst 34580] yielded a half-maximal inhibitory concentration (IC50) of 860 ± 50 nM.
